Test results taken from paper PMC11504268 (Antibiotics, 2024).
Like-named read-outs stand apart in the source and are kept apart here.

Experiments:
[1] = Experimental: The estimation of parameters, including fixed and random effects, was conducted using first-order conditional estimation with the interaction method. This enables modelling of the interaction between the IIV in PK parameters and the residual variability (RV) in measured concentrations. […] Each model adhered to first-order kinetics, except the zero-order infusion processes. Each PK parameter in the model was described by the equation θi = θ × exp (ηi), where θ denotes the typical value of the PK parameter, θi is the individual PK parameter value for each participant, and ηi is a random variable encapsulating IIV. We hypothesised that IIV is normally distributed, with a mean of zero and variance ω^2. RV was modelled as normally distributed with a mean of zero and a variance σ^2. Additionally, we evaluated additive, proportional, and combined additive-proportional error models. The methods used to select and validate models encompassed several criteria: variations in NONMEM objective function values (OFVs), the accuracy of parameter estimates as reflected by relative standard errors, goodness-of-fit plots, VPC, and bootstrap evaluations. […] Model validation processes included the creation of conditional weighted residual plots versus time and against population predictions (PRED), in addition to comparisons between observed data and both PRED and individual predictions. […] The variability in the final model predictions was analysed using the median and 95% confidence intervals from 2000 bootstrap replicates. We identified significant covariates influencing pharmacokinetic (PK) parameters through a process of stepwise forward selection and backward elimination, with inclusion thresholds of p < 0.01 (ΔOFV < −6.635) and exclusion thresholds of p < 0.001 (ΔOFV > 10.83) for single degree-of-freedom tests. Covariates were assessed for both their statistical and clinical relevance, taking into account demographic factors (such as gender, age, weight, height, body mass index, and body surface area) and biochemical markers (including serum protein, albumin, creatinine, and cystatin C levels). […] We utilised Perl-speaks-NONMEM (PSN, version 5.3.1, [https://uupharmacometrics.github.io/PsN], accessed on 13 April 2023) for covariate identification, VPC execution, and nonparametric bootstrapping to evaluate model robustness. Data analysis and graphical outputs were conducted using the R programming environment (version 4.4.0, [www.rproject.org], Vienna, Austria, accessed on 6 June 2024).
[2] = cited from earlier work; for average AUC: critically ill patients, daily dose 30 mg/kg
Remark: listed apart in the source
[3] = healthy adults n = 12, 1 g i.v. over 2 h, plasma, NCA, mean (CV%)
[4] = healthy adults n = 12, 1 g i.v. over 2 h, plasma, NCA, median (IQR)
[5] = final model, 2000 bootstrap replicates
[6] = final model, Q = θ5 × (WT/69.45)^θ6
[7] = final model, V2 = θ7 × (BSA/1.80)^θ8

C[C@@H](O)[C@H]1C(=O)N2C(C(=O)O)=C(S[C@@H]3CN[C@H](C(=O)N(C)C)C3)[C@H](C)[C@H]12 [meropenem]
V1, Estimates ([1]; in vivo): 15.1 L | V2, Estimates ([1]; in vivo): 26.2 L

CN[C@H](CC(C)C)C(=O)N[C@H]1C(=O)N[C@@H](CC(N)=O)C(=O)N[C@H]2C(=O)N[C@H]3C(=O)N[C@H](C(=O)N[C@H](C(=O)O)c4cc(O)cc(O)c4-c4cc3ccc4O)[C@H](O)c3ccc(c(Cl)c3)Oc3cc2cc(c3O[C@@H]2O[C@H](CO)[C@@H](O)[C@H](O)[C@H]2O[C@H]2C[C@](C)(N)[C@H](O)[C@H](C)O2)Oc2ccc(cc2Cl)[C@H]1O [vancomycin]
vancomycin clearance ([2]; ICU patients, CLCR 130 mL/min): 6.20 L/h | vancomycin clearance ([2]; ICU patients, CLCR 180 mL/min): 8.61 L/h | vancomycin clearance ([2]; critically ill ARC patients, average CLCR 180.8 mL/min): 9.7 L/h | vancomycin clearance ([2]; critically ill non-ARC patients, average CLCR 103.4 mL/min): 6.5 L/h | average AUC ([2]; 139 patients with augmented renal clearance (ARC)): 232.9 µg·h/mL | average AUC ([2]; 141 patients without ARC): 316.2 µg·h/mL | vancomycin clearance ([2]; patients with ARC): 5.55 L/h | vancomycin clearance ([2]; patients with non-ARC): 4.04 L/h | vancomycin clearance ([2]; patients with thermal or inhalation injuries, TBSA burns 10–19%): 8.2 L/h | vancomycin clearance ([2]; patients with thermal or inhalation injuries, TBSA burns 20–29%): 8.9 L/h | vancomycin clearance ([2]; patients with thermal or inhalation injuries, TBSA burns < 10%): 6.9 L/h | Cmax, Mean (CV%) (healthy Korean adults n = 12, single 1 g i.v. infusion over 2 h, plasma, LC-MS/MS, NCA, mean (CV%)): 23.4 (34.4) mg/L | Cmax, Median (IQR) (healthy Korean adults n = 12, single 1 g i.v. infusion over 2 h, plasma, LC-MS/MS, NCA, median (IQR)): 20.8 (17.0–27.1) mg/L | AUCinf, Mean (CV%) [3]: 106 (30.5) mg·h/L | AUClast, Mean (CV%) [3]: 78.7 (28.2) mg·h/L | AUMCinf, Mean (CV%) [3]: 667 (40.0) mg·h^2/L | AUMClast, Mean (CV%) [3]: 289 (26.7) mg·h^2/L | MRTinf, Mean (CV%) [3]: 5.12 (18.9) h | AUCinf, Median (IQR) [4]: 97.1 (76.1–140) mg·h/L | AUClast, Median (IQR) [4]: 73.6 (58.5–90.4) mg·h/L | AUMCinf, Median (IQR) [4]: 587 (464–807) mg·h^2/L | AUMClast, Median (IQR) [4]: 279 (217–341) mg·h^2/L | MRTinf, Median (IQR) [4]: 4.98 (4.46–5.60) h | VssNCA, Mean (CV%) (steady-state Vd by NCA, healthy adults n = 12, 1 g i.v. over 2 h, mean (CV%)): 0.730 (15.7) L/kg | VssNCA, Median (IQR) (steady-state Vd by NCA, healthy adults n = 12, 1 g i.v. over 2 h, median (IQR)): 0.714 (0.650–0.802) L/kg | t1/2λz, Mean (CV%) (terminal elimination half-life, NCA, healthy adults n = 12, 1 g i.v. over 2 h, mean (CV%)): 3.87 (21.3) h | t1/2λz, Median (IQR) (terminal elimination half-life, NCA, healthy adults n = 12, 1 g i.v. over 2 h, median (IQR)): 3.58 (3.34–4.25) h | CLNCA, Mean (CV%) (total body clearance by NCA, healthy adults n = 12, 1 g i.v. over 2 h, mean (CV%)): 0.146 (19.8) L/h/kg | CLNCA, Median (IQR) (total body clearance by NCA, healthy adults n = 12, 1 g i.v. over 2 h, median (IQR)): 0.135 (0.128–0.160) L/h/kg | VzZNCA, Mean (CV%) (volume of distribution by NCA, healthy adults n = 12, 1 g i.v. over 2 h, mean (CV%)): 0.793 (15.4) L/kg | VzZNCA, Median (IQR) (volume of distribution by NCA, healthy adults n = 12, 1 g i.v. over 2 h, median (IQR)): 0.806 (0.701–0.873) L/kg | clearance rate per kg ([1]; final model typical CL 8.83 L/h expressed per kg, healthy adults with normal renal function): 2.12 mL/min/kg | θ1, typical total clearance CL, Bootstrap Median (95% CI) [1, 5]: 8.78 (8.14–9.6) L/h | θ4, central volume of distribution V1, Bootstrap Median (95% CI) [1, 5]: 12.8 (3.94–19.6) L | θ5, intercompartmental clearance Q, Bootstrap Median (95% CI) [1, 5]: 20.4 (16.8–28.2) L/h | θ6, exponent of weight on Q, Bootstrap Median (95% CI) [1, 5]: 2.31 (1.36–3.35) | θ7, peripheral volume of distribution V2, Bootstrap Median (95% CI) [1, 5]: 27.8 (25.0–31.0) L | θ8, exponent of BSA on V2, Bootstrap Median (95% CI) [1, 5]: 3.13 (1.79–3.73) | θ1, typical total clearance CL, Estimates ([1]; final model, CL = θ1 × (WT/69.45)^θ2 × (AGE/38.5)^θ3, 12 healthy adults): 8.83 L/h | θ5, intercompartmental clearance Q, Estimates [1, 6]: 20.2 L/h | θ6, exponent of weight on Q, Estimates [1, 6]: 2.38 | θ4, central volume of distribution V1, Estimates ([1]; final model, V1 = θ4): 12.9 L | θ7, peripheral volume of distribution V2, Estimates [1, 7]: 27.4 L | θ8, exponent of BSA on V2, Estimates [1, 7]: 3.09 | VC, Mean (CV%) ([1]; individual parameters from population PK, central volume of distribution, n = 12, mean (CV%)): 0.211 (48.0) L/kg | VC, Median (IQR) ([1]; individual parameters from population PK, central volume of distribution, n = 12, median (IQR)): 0.163 (0.144–0.251) L/kg | t1/2α, Mean (CV%) ([1]; individual parameters from population PK, distribution phase half-life, n = 12, mean (CV%)): 0.270 (42.7) h | AUCtau, Mean (CV%) ([1]; individual parameters from population PK, dose/CL, 1 g, n = 12, mean (CV%)): 113 (28.9) mg·h/L | AUCtau, Median (IQR) ([1]; individual parameters from population PK, dose/CL, 1 g, n = 12, median (IQR)): 111 (81.9–137) mg·h/L | t1/2β, Mean (CV%) ([1]; individual parameters from population PK, elimination phase half-life, n = 12, mean (CV%)): 3.88 (12.5) h | Vss, Mean (CV%) ([1]; individual parameters from population PK, steady-state volume of distribution, n = 12, mean (CV%)): 0.611 (16.5) L/kg | Vss, Median (IQR) ([1]; individual parameters from population PK, steady-state volume of distribution, n = 12, median (IQR)): 0.593 (0.565–0.650) L/kg | CL, Mean (CV%) ([1]; individual parameters from population PK, total clearance, healthy adults n = 12, 1 g i.v. over 2 h, mean (CV%)): 0.135 (17.0) L/h/kg | CL, Median (IQR) ([1]; individual parameters from population PK, total clearance, healthy adults n = 12, median (IQR)): 0.131 (0.117–0.144) L/h/kg | Q, Estimates ([1]; two-compartment base model): 17.8 L/h
